Literature values as cited in patent US7858598B2, “Reagents for detection of hypochlorous acid” (Morningside Ventures Limited & Versitech Limited, priority 2007, dated 2010).

pKa: 7.6
Compound: OCl [hypochlorous acid]
